Test results: patent US20240384350A1, “METHODS OF TREATING CANCER WITH KINASE INHIBITORS” (BOARD OF REGENTS, THE UNIVERSITY OF TEXAS SYSTEM, priority 2021, published 2024)

How the values were obtained:
Experiment in all cases: Ba/F3 drug screening, Cell Titer Glo, IC50 Mut/WT
Type in all cases: cell-based
[1] = target: T1, EGFR L747_K754del insATSPE (Homo sapiens, UniProt P00533, DEL747-749/K754E); settings: T790M-like-3S, 72 hours
T1 construct: expressed in transfected cells; host or cells: Ba/F3 cells, retroviral pBabe-Puro vector

EGFR N771dupN = target: T2, EGFR N771dupN (Homo sapiens, UniProt P00533, DUP771-771); settings: Ex20, 72 hours
T2 construct: expressed in transfected cells; host or cells: Ba/F3 cells, retroviral pBabe-Puro vector
Method: Data represent the ratio of the IC50 value for a given TKI for cells with an ex20ins EGFR mutation to the IC50 value for cells with wildtype EGFR.
(§1) Ba/F3 cell generation, drug screening, and IC50 approximations. Ba/F3 cells were obtained as a gift from Dr. Gordon Mills (MD Anderson Cancer Center), and maintained in RPMI (Sigma) containing 10% FBS, 1% penicillin/streptomycin, and 10 ng/ml recombinant mIL-3 (R&D Biosystems). To establish stable Ba/F3 cell lines, Ba/F3 cells were transduced with retroviruses containing mutant EGFR plasmids for 12-24 hours.
After 48-72 hours of transduction, 2 μg/ml puromycin (Invitrogen) was added to Ba/F3 cell lines in complete RPMI. To select for EGFR positive cell lines, cells were stained with PE-EGFR (Biolegend) and sorted by FACS. After sorting, EGFR positive cells were maintained in RPMI containing 10% FBS, 1% penicillin/streptomycin, and 1 ng/ml EGF to support cell viability. Drug screening was performed as previously described^41,42. Shortly, cells were plated in 384-well plates (Greiner Bio-One) at 2000-3000 cells per well in technical triplicate. Seven different concentrations of TKIs or DMSO vehicle were added to reach a final volume of 40 μL per well. After 72 hours, 11 μL of Cell Titer Glo (Promega) was added to each well. Plates were incubated for a minimum of 10 minutes, and bioluminescence was determined using a FLUOstar OPTIMA plate reader (BMG LABTECH). Raw bioluminescence values were normalized to DMSO control treated cells, and values were plotted in GraphPad Prism. […] Drug screens were performed in technical triplicate on each plate and either duplicate or triplicate biological replicates. […] Statistical differences between groups were determined by ANOVA as described in the figure legends.

EGFR L858R T790M L792H = target: T3, EGFR L858R T790M L792H (Homo sapiens, UniProt P00533, L792H/L858R/T790M); settings: T790M-like-3S, 72 hours
T3 construct: expressed in transfected cells; host or cells: Ba/F3

EGFR A763insFQEA = target: T4, EGFR A763insFQEA (Homo sapiens, UniProt P00533, INS763FQEA); settings: Classical-Like, 72 hours
T4 construct: expressed in transfected cells; host or cells: Ba/F3 cells, retroviral pBabe-Puro vector

EGFR L833V = target: T5, EGFR L833V (Homo sapiens, UniProt P00533, L833V); settings: Classical-Like, 72 hours
T5 construct: expressed in transfected cells; host or cells: Ba/F3 cells, retroviral pBabe-Puro vector

EGFR S768I/T790M = target: T6, EGFR S768I/T790M (Homo sapiens, UniProt P00533, S768I/T790M); settings: T790M-like-3S, 72 hours
T6 construct: expressed in transfected cells; host or cells: Ba/F3

EGFR L718Q = target: T7, EGFR L718Q (Homo sapiens, UniProt P00533, L718Q); settings: Ba/F3 cells, EGFR L718Q (PACC), Mut/WT
T7 construct: expressed in transfected cells; host or cells: Ba/F3

EGFR R776C = target: T8, EGFR R776C (Homo sapiens, UniProt P00533, R776C); settings: Ba/F3 cells, EGFR R776C (PACC), Mut/WT
T8 construct: host or cells: Ba/F3
Method: (§2) Data represent the ratio of the IC50 value for a given TKI for cells with a PACC EGFR mutation to the IC50 value for cells with wildtype EGFR.
as §1
(§3) After 48-72 hours of transduction, 2 μg/ml puromycin (Invitrogen) was added to Ba/F3 cell lines in complete RPMI. To select for EGFR positive cell lines, cells were stained with PE-EGFR (Biolegend) and sorted by FACS. After sorting, EGFR positive cells were maintained in RPMI containing 10% FBS, 1% penicillin/streptomycin, and 1 ng/ml EGF to support cell viability. Drug screening was performed as previously described^41,42. Shortly, cells were plated in 384-well plates (Greiner Bio-One) at 2000-3000 cells per well in technical triplicate. Seven different concentrations of TKIs or DMSO vehicle were added to reach a final volume of 40 μL per well. After 72 hours, 11 μL of Cell Titer Glo (Promega) was added to each well. Plates were incubated for a minimum of 10 minutes, and bioluminescence was determined using a FLUOstar OPTIMA plate reader (BMG LABTECH). Raw bioluminescence values were normalized to DMSO control treated cells, and values were plotted in GraphPad Prism. […] Drug screens were performed in technical triplicate on each plate and either duplicate or triplicate biological replicates.

EGFR L861R = target: T9, EGFR L861R (Homo sapiens, UniProt P00533, L861R); settings: Classical-Like, 72 hours
T9 construct: expressed in transfected cells; host or cells: Ba/F3 cells, retroviral pBabe-Puro vector (vector made by GeneScript from EGFR WT)

EGFR A767insASV = target: T10, EGFR A767insASV (Homo sapiens, UniProt P00533, DUP767-769); settings: Ex20, 72 hours
T10 construct: expressed in transfected cells; host or cells: Ba/F3 cells, retroviral pBabe-Puro vector

EGFR L718V = target: T11, EGFR L718V (Homo sapiens, UniProt P00533, L718V); settings: Ba/F3 cells, EGFR L718V (PACC), Mut/WT
T11 construct: expressed in transfected cells; host or cells: Ba/F3

EGFR L858R L718Q = target: T12, EGFR L858R L718Q (Homo sapiens, UniProt P00533, L718Q/L858R); settings: Ba/F3 cells, EGFR L858R L718Q (PACC), Mut/WT
T12 construct: host or cells: Ba/F3

EGFR Ex19del L718Q = target: T13, EGFR Ex19del L718Q (Homo sapiens, UniProt P00533, DEL746-750/L718Q); settings: Ba/F3 cells, EGFR Ex19del L718Q (PACC), Mut/WT
T13 construct: expressed in transfected cells; host or cells: Ba/F3

EGFR L858R G724S = target: T14, EGFR L858R G724S (Homo sapiens, UniProt P00533, G724S/L858R); settings: Ba/F3 cells, EGFR L858R G724S (PACC), Mut/WT
T14 construct: expressed in transfected cells; host or cells: Ba/F3 (retroviral transduction, pBabe-Puro based vectors)

EGFR S811F = target: T15, EGFR S811F (Homo sapiens, UniProt P00533, S811F); settings: Classical-Like, 72 hours
T15 construct: expressed in transfected cells; host or cells: Ba/F3 cells, retroviral pBabe-Puro vector (vector made by GeneScript from EGFR WT)
Method: (§4) Data represent the ratio of the IC50 value for a given TKI for cells with a classical-like EGFR mutation to the IC50 value for cells with wildtype EGFR.
as §1
(§5) After 48-72 hours of transduction, 2 μg/ml puromycin (Invitrogen) was added to Ba/F3 cell lines in complete RPMI. To select for EGFR positive cell lines, cells were stained with PE-EGFR (Biolegend) and sorted by FACS. After sorting, EGFR positive cells were maintained in RPMI containing 10% FBS, 1% penicillin/streptomycin, and 1 ng/ml EGF to support cell viability. […] Shortly, cells were plated in 384-well plates (Greiner Bio-One) at 2000-3000 cells per well in technical triplicate. Seven different concentrations of TKIs or DMSO vehicle were added to reach a final volume of 40 μL per well. After 72 hours, 11 μL of Cell Titer Glo (Promega) was added to each well. Plates were incubated for a minimum of 10 minutes, and bioluminescence was determined using a FLUOstar OPTIMA plate reader (BMG LABTECH). Raw bioluminescence values were normalized to DMSO control treated cells, and values were plotted in GraphPad Prism. […] Drug screens were performed in technical triplicate on each plate and either duplicate or triplicate biological replicates.

EGFR L858R/T790M/L718Q = target: T16, EGFR L858R/T790M/L718Q (Homo sapiens, UniProt P00533, L718Q/L858R/T790M); settings: T790M-like-3R, 72 hours
T16 construct: expressed in transfected cells; host or cells: Ba/F3

EGFR T790M = target: T17, EGFR T790M (Homo sapiens, UniProt P00533, T790M); settings: T790M-like-3S, 72 hours
T17 construct: expressed in transfected cells; host or cells: Ba/F3

EGFR Ex19del/T790M/G724S = target: T18, EGFR Ex19del/T790M/G724S (Homo sapiens, UniProt P00533, DEL746-750/G724S/T790M); settings: T790M-like-3S, 72 hours
T18 construct: expressed in transfected cells; host or cells: Ba/F3

EGFR G719A = target: T19, EGFR G719A (Homo sapiens, UniProt P00533, G719A); settings: Ba/F3 cells, EGFR G719A (PACC), Mut/WT
T19 construct: expressed in transfected cells; host or cells: Ba/F3

EGFR L858R T790M L718V = target: T20, EGFR L858R T790M L718V (Homo sapiens, UniProt P00533, L718V/L858R/T790M); settings: T790M-like-3R, 72 hours
T20 construct: expressed in transfected cells; host or cells: Ba/F3

EGFR L858R/T790M = target: T21, EGFR L858R/T790M (Homo sapiens, UniProt P00533, L858R/T790M); settings: T790M-like-3S, 72 hours
T21 construct: expressed in transfected cells; host or cells: Ba/F3
Method: Data represent the ratio of the IC50 value for a given TKI for cells with a T790M-like-3S EGFR mutation to the IC50 value for cells with wildtype EGFR.
as §1, §3

EGFR A763insLQEA = target: T22, EGFR A763insLQEA (Homo sapiens, UniProt P00533, INS763LQEA); settings: Classical-Like, 72 hours
T22 construct: expressed in transfected cells; host or cells: Ba/F3 cells, retroviral pBabe-Puro vector
Method: as §4, §1, §5

EGFR G719A L861Q = target: T23, EGFR G719A L861Q (Homo sapiens, UniProt P00533, G719A/L861Q); settings: Ba/F3 cells, EGFR G719A L861Q (PACC), Mut/WT
T23 construct: expressed in transfected cells; host or cells: Ba/F3

EGFR Ex19del/C797S = target: T24, EGFR Ex19del/C797S (Homo sapiens, UniProt P00533, C797S/DEL746-750); settings: Ba/F3 cells, EGFR Ex19del/C797S (PACC), Mut/WT
T24 construct: expressed in transfected cells; host or cells: Ba/F3

EGFR G724S T790M = target: T25, EGFR G724S T790M (Homo sapiens, UniProt P00533, G724S/T790M); settings: T790M-like-3R, 72 hours
T25 construct: expressed in transfected cells; host or cells: Ba/F3
Method: Data represent the ratio of the IC50 value for a given TKI for cells with a T790M-like-3R EGFR mutation to the IC50 value for cells with wildtype EGFR.
as §1
After 48-72 hours of transduction, 2 μg/ml puromycin (Invitrogen) was added to Ba/F3 cell lines in complete RPMI. To select for EGFR positive cell lines, cells were stained with PE-EGFR (Biolegend) and sorted by FACS. After sorting, EGFR positive cells were maintained in RPMI containing 10% FBS, 1% penicillin/streptomycin, and 1 ng/ml EGF to support cell viability. […] Shortly, cells were plated in 384-well plates (Greiner Bio-One) at 2000-3000 cells per well in technical triplicate. Seven different concentrations of TKIs or DMSO vehicle were added to reach a final volume of 40 μL per well. After 72 hours, 11 μL of Cell Titer Glo (Promega) was added to each well. Plates were incubated for a minimum of 10 minutes, and bioluminescence was determined using a FLUOstar OPTIMA plate reader (BMG LABTECH). Raw bioluminescence values were normalized to DMSO control treated cells, and values were plotted in GraphPad Prism. […] Drug screens were performed in technical triplicate on each plate and either duplicate or triplicate biological replicates. […] Statistical differences between groups were determined by ANOVA as described in the figure legends.

EGFR E709_T710del insD = target: T26, EGFR E709_T710del insD (Homo sapiens, UniProt P00533, DEL709-709/T710D); settings: Ba/F3 cells, EGFR E709_T710del insD (PACC), Mut/WT
T26 construct: expressed in transfected cells; host or cells: Ba/F3
Method: as §2, §1, §3

EGFR E709K G719S = target: T27, EGFR E709K G719S (Homo sapiens, UniProt P00533, E709K/G719S); settings: Ba/F3 cells, EGFR E709K G719S (PACC), Mut/WT
T27 construct: expressed in transfected cells; host or cells: Ba/F3

C=CC(=O)N[C@H]1C=C(C)c2c(-c3cnc4ccccc4c3)c3c(N)ncnc3n2C1 [TAS 6417]
ratio of IC50 for cells with mutant EGFR to IC50 for cells with wildtype EGFR (Mut/WT) [1]: 0.0004661
ratio of IC50 for cells with mutant EGFR to IC50 for cells with wildtype EGFR (Mut/WT) (EGFR N771dupN): 0.05134
ratio of IC50 for cells with mutant EGFR to IC50 for cells with wildtype EGFR (Mut/WT) (EGFR L858R T790M L792H): 9.536E−05
ratio of IC50 for cells with mutant EGFR to IC50 for cells with wildtype EGFR (Mut/WT) (EGFR A763insFQEA): 0.004982
ratio of IC50 for cells with mutant EGFR to IC50 for cells with wildtype EGFR (Mut/WT) (EGFR L833V): 0.03111
ratio of IC50 for cells with mutant EGFR to IC50 for cells with wildtype EGFR (Mut/WT) (EGFR S768I/T790M): 0.1153
ratio of the IC50 value for cells with a PACC EGFR mutation to the IC50 value for cells with wildtype EGFR (EGFR L718Q): 0.02239
ratio of the IC50 value for cells with a PACC EGFR mutation to the IC50 value for cells with wildtype EGFR (EGFR R776C): 0.1072
ratio of IC50 for cells with mutant EGFR to IC50 for cells with wildtype EGFR (Mut/WT) (EGFR L861R): 0.02984
ratio of IC50 for cells with mutant EGFR to IC50 for cells with wildtype EGFR (Mut/WT) (EGFR A767insASV): 0.1359
ratio of the IC50 value for cells with a PACC EGFR mutation to the IC50 value for cells with wildtype EGFR (EGFR L718V): 0.02378
ratio of the IC50 value for cells with a PACC EGFR mutation to the IC50 value for cells with wildtype EGFR (EGFR L858R L718Q): 0.0157
ratio of the IC50 value for cells with a PACC EGFR mutation to the IC50 value for cells with wildtype EGFR (EGFR Ex19del L718Q): 2.333
ratio of the IC50 value for cells with a PACC EGFR mutation to the IC50 value for cells with wildtype EGFR (EGFR L858R G724S): 0.01631
ratio of IC50 for cells with mutant EGFR to IC50 for cells with wildtype EGFR (Mut/WT) (EGFR S811F): 0.009026
ratio of IC50 for cells with mutant EGFR to IC50 for cells with wildtype EGFR (Mut/WT) (EGFR L858R/T790M/L718Q): 3.055
ratio of IC50 for cells with mutant EGFR to IC50 for cells with wildtype EGFR (Mut/WT) (EGFR T790M): 0.6671
ratio of IC50 for cells with mutant EGFR to IC50 for cells with wildtype EGFR (Mut/WT) (EGFR Ex19del/T790M/G724S): 0.1997
ratio of the IC50 value for cells with a PACC EGFR mutation to the IC50 value for cells with wildtype EGFR (EGFR G719A): 0.01801
ratio of IC50 for cells with mutant EGFR to IC50 for cells with wildtype EGFR (Mut/WT) (EGFR L858R T790M L718V): 2.011
ratio of IC50 for cells with mutant EGFR to IC50 for cells with wildtype EGFR (Mut/WT) (EGFR L858R/T790M): 0.01963
ratio of IC50 for cells with mutant EGFR to IC50 for cells with wildtype EGFR (Mut/WT) (EGFR A763insLQEA): 0.005254
ratio of the IC50 value for cells with a PACC EGFR mutation to the IC50 value for cells with wildtype EGFR (EGFR G719A L861Q): 0.02387
ratio of the IC50 value for cells with a PACC EGFR mutation to the IC50 value for cells with wildtype EGFR (EGFR Ex19del/C797S): 1.093
ratio of IC50 for cells with mutant EGFR to IC50 for cells with wildtype EGFR (Mut/WT) (EGFR G724S T790M): 0.1693
ratio of the IC50 value for cells with a PACC EGFR mutation to the IC50 value for cells with wildtype EGFR (EGFR E709_T710del insD): 0.3335
ratio of the IC50 value for cells with a PACC EGFR mutation to the IC50 value for cells with wildtype EGFR (EGFR E709K G719S): 0.007578
